Source: PMC7774954, “Interactomic affinity profiling by holdup assay: Acetylation and distal residues impact the PDZome-binding specificity of PTEN phosphatase” (PLoS ONE, 2020)
*1 amine or outer side, *2 acyl side, *3 side chain or, on linkers, in order; H or OH if unused. Where a SMILES comes first, the peptide text is derived from it. The star is where a group is joined. X1 = O=C(CCCC[C@@H]1SC[C@@H]2NC(=O)N[C@@H]21)NCCCOCCOCCOCCCN*; Suc = O=C(CCC(=O)[*:2])[*:1]

How the values were obtained:
[1] = target: INADL-6 (Homo sapiens, UniProt Q8NI35); assay: Holdup assay, INADL-6; assay type: binding
[2] = tested on: HTRA4-1; assay: Holdup assay, HTRA4-1; assay type: binding, human
[3] = tested on: IL16-3; assay: Holdup assay, IL16-3; assay type: binding, human
[4] = tested on: LDB3-1; assay: Holdup assay, LDB3-1; assay type: binding, human
[5] = target: T1, DLG1 PDZ 2 (Homo sapiens, UniProt Q12959); assay: Holdup assay, DLG1-2; assay type: binding; details: for BI: DLG1-2
T1 construct: made in house; host or cells: E. coli
Method: (§1) The holdup assay was performed on a Tecan freedom Evo200 robot with 384-well plates in singlicate for the three 11-mer PTEN variants and the 13-mer PTEN peptide as described in [31, 32]. Briefly, prior to interaction assay, 2.5 μL of streptavidin resin was saturated in each well with 20 μL of biotinylated PBM peptides (42 μM) and then washed twice with an excess of free biotin, while the reference resin was incubated only with biotin. Right before the holdup experiment, the PDZ library was spiked with an internal standard of lysozyme. Then, the biotin- or PBM-saturated resin was incubated, each in a distinct well of a 384-well plate, with complete cell lysates diluted so that the concentration of the tag-PDZ present in the crude extract is adjusted at 4 μM. After a sufficient time to reach complex equilibrium (15 min.), a fast and mild filtration step is performed and the tag-PDZ concentrations were measured by capillary electrophoresis instrument (LabChip GXII, PerkinElmer, Massachusets, USA). Standard markers were used to convert migration time into molecular weight on the LabChip software and inappropriate molecular weight markers were corrected or excluded.
(§2) For filtered data, the BI was extracted with the following equation (Eq 1) that estimates the depleted fraction after superimposition of the sample and reference electropherograms: BI=Iref−Ilig/Iref (1) where Iref and Ilig are the intensities of the tag-PDZ peaks measured, for each PDZ domain/PBM peptide interaction pair, in the biotin reference and the PBM electropherograms, respectively.
(§3) BIs were transformed into dissociation constants (KD) using the following formula: KD=([PDZtot]−BI·[PDZtot])·([PBMtot]−BI·[PDZtot])/BI·[PDZtot] (2) where [PDZtot] and [PBMtot] correspond to the total concentrations of the PDZ domain (usually around 4 μM) and the PBM peptide used during the assay. Since the PBMtot concentration in the resin during the holdup assay parameter may differ from one peptide to another and remains unknown, it is impossible to directly convert BI values into KD constants. We systematically determined the KD constants for a subset of PDZ/PBM pairs by competitive FP. […] For each PBM, the average peptide concentration was calculated after outlier rejection based on the absolute distances from the median as compared to three times the standard deviation (3σ rule), with never more than 2 values rejected.

[6] = tested on: GRID2IP-1; assay: Holdup assay, GRID2IP-1; assay type: binding, human
[7] = tested on: APBA3-2; assay: Holdup assay, APBA3-2; assay type: binding, human
[8] = target: T2, SNX27 PDZ 1 (Homo sapiens, UniProt Q96L92); assay: Holdup assay, SNX27-1; assay type: binding; details: for BI: PDZ domain SNX27-1
T2 construct: made in house; host or cells: E. coli
Method: as §1, §2, §3

[9] = tested on: MAGI1-6; assay: Holdup assay, MAGI1-6; assay type: binding, human
[10] = target: T3, MAST2 PDZ 1 (Homo sapiens, UniProt Q6P0Q8); assay: Holdup assay, MAST2-1; assay type: binding
T3 construct: made in house; host or cells: E. coli
T3 sequence (Q6P0Q8 1104-1192 limits assumed): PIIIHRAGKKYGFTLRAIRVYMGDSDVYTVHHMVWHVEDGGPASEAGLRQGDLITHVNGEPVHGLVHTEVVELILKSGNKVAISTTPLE
Method: as §1, §2, §3

[11] = target: T4, PARD3 PDZ 3 (Homo sapiens, UniProt Q8TEW0); assay: Holdup assay, PARD3-3; assay type: binding; details: for BI: PDZ domain PARD3-3; for KD (affinity measured by holdup): PARD3 PDZ 3, singlicate, BI converted to KD, tag-PDZ 4 μM, 15 min, nd: not detected in the holdup assay
T4 construct: made in house; host or cells: E. coli
Method: as §1, §2, §3

[12] = tested on: DLG3-3; assay: Holdup assay, DLG3-3; assay type: binding, human
[13] = tested on: IL16-4; assay: Holdup assay, IL16-4; assay type: binding, human
[14] = target: GORASP1-1 (Homo sapiens, UniProt Q9BQQ3); assay: Holdup assay, GORASP1-1; assay type: binding
[15] = tested on: MAGI3-3; assay: Holdup assay, MAGI3-3; assay type: binding, human
[16] = tested on: MAGI3-1; assay: Holdup assay, MAGI3-1; assay type: binding, human
[17] = tested on: MLLT4-1; assay: Holdup assay, MLLT4-1; assay type: binding, human

T1 sequence (Q12959 319-405 limits assumed): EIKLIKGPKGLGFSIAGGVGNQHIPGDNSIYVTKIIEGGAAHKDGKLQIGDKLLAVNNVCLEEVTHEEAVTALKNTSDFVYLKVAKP
Chain of INADL-6 (Q8NI35 whole entry): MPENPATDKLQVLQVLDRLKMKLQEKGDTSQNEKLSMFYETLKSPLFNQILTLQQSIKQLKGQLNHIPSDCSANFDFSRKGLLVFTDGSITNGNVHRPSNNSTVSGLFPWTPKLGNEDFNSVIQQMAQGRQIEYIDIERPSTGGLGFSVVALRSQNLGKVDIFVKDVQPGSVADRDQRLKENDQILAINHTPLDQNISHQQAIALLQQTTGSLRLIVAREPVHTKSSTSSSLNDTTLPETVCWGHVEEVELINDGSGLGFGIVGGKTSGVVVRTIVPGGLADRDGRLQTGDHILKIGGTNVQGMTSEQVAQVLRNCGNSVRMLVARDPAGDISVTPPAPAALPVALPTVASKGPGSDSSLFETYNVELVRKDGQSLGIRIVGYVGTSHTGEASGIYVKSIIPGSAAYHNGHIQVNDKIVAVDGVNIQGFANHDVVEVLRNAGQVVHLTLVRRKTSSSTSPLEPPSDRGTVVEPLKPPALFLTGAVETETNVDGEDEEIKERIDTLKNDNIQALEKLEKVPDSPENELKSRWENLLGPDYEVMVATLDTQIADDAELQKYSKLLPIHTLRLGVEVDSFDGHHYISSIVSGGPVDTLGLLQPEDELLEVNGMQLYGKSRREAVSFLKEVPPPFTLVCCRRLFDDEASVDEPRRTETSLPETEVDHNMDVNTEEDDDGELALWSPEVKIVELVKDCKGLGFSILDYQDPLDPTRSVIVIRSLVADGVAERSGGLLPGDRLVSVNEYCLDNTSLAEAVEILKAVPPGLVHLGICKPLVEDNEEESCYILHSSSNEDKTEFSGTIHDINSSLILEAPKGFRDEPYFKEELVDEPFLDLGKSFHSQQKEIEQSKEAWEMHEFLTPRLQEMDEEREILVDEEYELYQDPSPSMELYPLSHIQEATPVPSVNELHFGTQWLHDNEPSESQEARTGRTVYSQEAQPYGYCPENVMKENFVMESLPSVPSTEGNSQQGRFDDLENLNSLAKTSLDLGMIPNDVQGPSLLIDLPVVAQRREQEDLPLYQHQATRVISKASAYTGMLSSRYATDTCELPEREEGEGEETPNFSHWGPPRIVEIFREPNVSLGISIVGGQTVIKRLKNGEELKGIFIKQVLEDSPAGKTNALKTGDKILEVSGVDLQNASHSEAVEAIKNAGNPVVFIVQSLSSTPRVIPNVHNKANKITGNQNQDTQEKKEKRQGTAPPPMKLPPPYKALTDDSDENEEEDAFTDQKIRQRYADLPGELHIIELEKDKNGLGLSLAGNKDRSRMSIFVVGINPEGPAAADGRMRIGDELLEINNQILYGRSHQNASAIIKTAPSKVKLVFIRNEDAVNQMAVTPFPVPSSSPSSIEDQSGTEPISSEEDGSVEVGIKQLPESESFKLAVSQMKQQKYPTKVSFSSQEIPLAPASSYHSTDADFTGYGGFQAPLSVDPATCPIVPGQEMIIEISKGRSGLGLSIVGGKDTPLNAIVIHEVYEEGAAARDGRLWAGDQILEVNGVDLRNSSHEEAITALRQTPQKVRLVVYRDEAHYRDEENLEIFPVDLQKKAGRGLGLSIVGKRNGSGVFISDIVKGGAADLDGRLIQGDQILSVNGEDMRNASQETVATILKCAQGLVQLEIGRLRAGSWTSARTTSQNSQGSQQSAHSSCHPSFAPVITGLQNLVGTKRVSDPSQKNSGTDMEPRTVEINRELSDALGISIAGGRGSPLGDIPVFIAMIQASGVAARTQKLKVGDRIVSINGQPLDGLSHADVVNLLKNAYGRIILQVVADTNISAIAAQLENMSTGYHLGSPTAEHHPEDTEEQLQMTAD
T4 sequence (Q8TEW0 590-677 limits assumed): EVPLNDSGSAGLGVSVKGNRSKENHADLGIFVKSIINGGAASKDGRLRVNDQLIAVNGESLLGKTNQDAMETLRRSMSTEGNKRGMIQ
Chain of GORASP1-1 (Q9BQQ3 2-440): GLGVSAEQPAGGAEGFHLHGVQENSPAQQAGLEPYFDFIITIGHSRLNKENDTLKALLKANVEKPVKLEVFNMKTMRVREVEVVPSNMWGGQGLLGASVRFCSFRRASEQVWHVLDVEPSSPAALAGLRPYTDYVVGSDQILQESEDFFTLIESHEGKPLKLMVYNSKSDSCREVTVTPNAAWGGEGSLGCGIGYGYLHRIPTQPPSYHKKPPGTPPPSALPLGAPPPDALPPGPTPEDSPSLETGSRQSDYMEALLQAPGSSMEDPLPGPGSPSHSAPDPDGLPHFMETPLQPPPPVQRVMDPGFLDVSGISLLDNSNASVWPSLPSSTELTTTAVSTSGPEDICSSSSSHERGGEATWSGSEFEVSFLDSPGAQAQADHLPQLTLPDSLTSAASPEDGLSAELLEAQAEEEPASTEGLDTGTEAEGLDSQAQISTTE

`CC[C@H](C)[C@H](NC(=O)[C@H](CCC(N)=O)NC(=O)[C@@H](NC(=O)[C@H](Cc1c[nH]cn1)NC(=O)[C@H](CCC(N)=O)NC(=O)[C@H](CC(=O)O)NC(=O)[C@H](CCC(=O)O)NC(=O)[C@H](CC(=O)O)NC(=O)CCC(=O)NCCCOCCOCCOCCCNC(=O)CCCC[C@@H]1SC[C@@H]2NC(=O)N[C@@H]21)[C@@H](C)O)C(=O)N[C@H](C(=O)N[C@@H](CCCCNC(C)=O)C(=O)N[C@H](C(=O)O)C(C)C)[C@@H](C)O` [PTEN_Ac] was tested, and the BI [1] was 0.316, the Kd [1] was 57.9 µM and the BI [2] was -0.059. The LogKD [2] was 3.605, the BI [3] was -0.166 and the LogKD [3] was 3.605. It also gave a BI [4] of -0.04, a LogKD [4] of 3.605 and a Kd [5] of 35.6 µM. For the same compound, the BI [5] was 0.425, the BI [6] was -0.067 and the LogKD [6] was 3.605. The BI [7] was 0.024, the LogKD [7] was 3.605 and the Kd [8] was 4.03 µM. The BI [8] was 0.859, the BI [9] was 0.096 and the LogKD [9] was 3.605. The Kd [10] was 4.07 µM, the BI ([10]; MAST2-1) was 0.858 and the BI [11] was 0.104. For the same compound, the BI [12] was -0.04, the LogKD [12] was 3.605 and the BI [13] was 0.014. It also gave a LogKD [13] of 3.605, a BI [14] of 0.151 and a BI [15] of -0.079. The LogKD [15] was 3.605.

`CC[C@H](C)[C@H](NC(=O)[C@H](CCC(N)=O)NC(=O)[C@@H](NC(=O)[C@H](Cc1c[nH]cn1)NC(=O)[C@H](CCC(N)=O)NC(=O)[C@H](CC(=O)O)NC(=O)[C@H](CCC(=O)O)NC(=O)[C@H](CC(=O)O)NC(=O)CCC(=O)NCCCOCCOCCOCCCNC(=O)CCCC[C@@H]1SC[C@@H]2NC(=O)N[C@@H]21)[C@@H](C)O)C(=O)N[C@H](C(=O)N[C@@H](CCCCN)C(=O)N[C@H](C(=O)O)C(C)C)[C@@H](C)O` [PTEN_11] showed a BI [16] of -0.011, a LogKD [16] of 3.519 and a BI [1] of 0.077. For the same compound, the LogKD [1] was 3.519, the BI [2] was 0.062 and the LogKD [2] was 3.519. It also gave a BI [3] of 0.004, a LogKD [3] of 3.519 and a BI [4] of -0.027. For the same compound, the LogKD [4] was 3.519, the BI [5] was 0.09 and the BI [17] was -0.038. It also gave a LogKD [17] of 3.519, a BI [6] of -0.012 and a LogKD [6] of 3.519. The BI [7] was 0.086, the LogKD [7] was 3.519 and the Kd [8] was 13.8 µM. It also gave a BI [9] of -0.04, a LogKD [9] of 3.519 and a Kd [10] of 12.7 µM. The BI ([10]; MAST2-1) was 0.711, the “BI (binding intensity)” value ([10]; MAST2-1, holdup, singlicate, 0.00 no binding to 1.00 strong binding) was 0.71 and the “KD (affinity measured by holdup)” value [11] was 160 µM. It also gave a BI [11] of -0.078, a BI [12] of -0.011 and a LogKD [12] of 3.519. It also gave a BI [13] of -0.028, a LogKD [13] of 3.519 and a BI [14] of 0.037. The LogKD [14] was 3.519, the BI [15] was -0.099 and the LogKD [15] was 3.519.

With `CC[C@H](C)[C@H](NC(=O)[C@H](CCC(N)=O)NC(=O)[C@@H](NC(=O)[C@H](Cc1c[nH]cn1)NC(=O)[C@H](CCC(N)=O)NC(=O)[C@H](CC(=O)O)NC(=O)[C@H](CCC(=O)O)NC(=O)[C@H](CC(=O)O)NC(=O)[C@H](Cc1ccccc1)NC(=O)[C@@H]1CCCN1C(=O)CCC(=O)NCCCOCCOCCOCCCNC(=O)CCCC[C@@H]1SC[C@@H]2NC(=O)N[C@@H]21)[C@@H](C)O)C(=O)N[C@H](C(=O)N[C@@H](CCCCN)C(=O)N[C@H](C(=O)O)C(C)C)[C@@H](C)O` [PTEN_13] ({X1-Suc}-PFDEDQHTQITKV-OH) the BI [16] was -0.006, the BI [1] was 0.044 and the LogKD [1] was 3.826. It also gave a BI [2] of 0.011, a BI [3] of -0.001 and a BI [4] of -0.021. For the same compound, the BI [5] was 0.168, the BI [17] was 0.007 and the BI [6] was 0.044. For the same compound, the BI [7] was 0.046, the Kd [8] was 5.58 µM and the BI [8] was 0.717. For the same compound, the BI [9] was 0.072, the Kd [10] was 1.28 µM and the BI ([10]; MAST2-1) was 0.88. The “KD (affinity measured by holdup)” value [11] was 96 µM, the BI [11] was 0.051 and the BI [12] was -0.054. The BI [13] was 0.014, the BI [14] was 0.076 and the LogKD [14] was 3.826. For the same compound, the BI [15] was -0.03.

Compound `CC[C@H](C)[C@H](NC(=O)[C@H](CCC(N)=O)NC(=O)[C@@H](NC(=O)[C@H](Cc1c[nH]cn1)NC(=O)[C@H](CCC(N)=O)NC(=O)[C@H](CC(=O)O)NC(=O)[C@H](CCC(=O)O)NC(=O)[C@H](CC(=O)O)NC(=O)CCC(=O)NCCCOCCOCCOCCCNC(=O)CCCC[C@@H]1SC[C@@H]2NC(=O)N[C@@H]21)[C@@H](C)O)C(=O)N[C@H](C(=O)N[C@@H](CCCNC(=N)N)C(=O)N[C@H](C(=O)O)C(C)C)[C@@H](C)O` [PTEN_KR] ({X1-Suc}-DEDQHTQITRV-OH) has a BI [16] of -0.004, a LogKD [16] of 3.655 and a BI [1] of 0.066. For the same compound, the LogKD [1] was 3.655, the BI [2] was 0.004 and the LogKD [2] was 3.655. The BI [3] was -0.005, the LogKD [3] was 3.655 and the BI [4] was -0.05. It also gave a LogKD [4] of 3.655, a Kd [5] of 70.8 µM and a BI [5] of 0.253. For the same compound, the BI [17] was 0.021, the LogKD [17] was 3.655 and the BI [6] was -0.033. For the same compound, the LogKD [6] was 3.655, the BI [7] was 0.086 and the LogKD [7] was 3.655. It also gave a Kd [8] of 8.32 µM, a BI [8] of 0.67 and a BI [9] of 0.051. The LogKD [9] was 3.655, the Kd [10] was 6.66 µM and the BI ([10]; MAST2-1) was 0.767. For the same compound, the “KD (affinity measured by holdup)” value [11] was 56 µM, the BI [11] was 0.044 and the BI [12] was 0.067. The LogKD [12] was 3.655, the BI [13] was 0.002 and the LogKD [13] was 3.655. For the same compound, the BI [14] was 0.122, the BI [15] was -0.043 and the LogKD [15] was 3.655.
